In US20250368649A1, “TETRAHYDROPYRIDOPYRIMIDINE PAN-KRAS INHIBITORS” (Mirati Therapeutics, Inc., priority 2022, published 2025) one finds IC50 and inhibition data, which are given here for 4 compounds.

The structures appear in SMILES notation.

One test relates to H727 cells. Put plainly: Inhibition of KRas-mediated phosphorylation of ERK (Cisbio HTRF pERK), H727 cells. It counts as cell-based. Particulars: Homo sapiens; for IC50: NCI-H727, 3 h, 3 hr compound incubation, Cisbio pERK HTRF. (In general: TR-FRET usually uses a lanthanide donor and a delayed reading to cut background.)
For a further test, the target named is KRas G12D (Homo sapiens, UniProt P01116, G12D). The test can be described thus: biochemical. Conditions: Binding to KRas (IC50 nM) G12D, TR-FRET displacement, KRas G12D.
In a further test the target is KRas G12V (Homo sapiens, UniProt P01116, G12V). The test can be described thus: biochemical. Conditions: Binding to KRas (IC50 nM) G12V, TR-FRET displacement, KRas G12V.
A further test deals with HCT116 cells. The test can be described thus: Inhibition of KRas-mediated phosphorylation of ERK (Cisbio HTRF pERK), HCT116 cells. It counts as cell-based. Conditions: Homo sapiens; for IC50: HCT-116, 3 h, 3 hr compound incubation, Cisbio pERK HTRF.
In a further test the test system is ASPC1 cells. Put plainly: Inhibition of KRas-mediated phosphorylation of ERK (Cisbio HTRF pERK), ASPC1 cells. The test is classed as cell-based. Particulars: Homo sapiens, AsPC-1 cells; for IC50: ASPC1, 3 h, 3 hr compound incubation, Cisbio pERK HTRF.
A further test has as its target KRas G12R (Homo sapiens, UniProt P01116, G12R). Put plainly: biochemical. Conditions: Binding to KRas (IC50 nM) G12R, TR-FRET displacement, KRas G12R.
The subject of a further test is H460 cells. The test can be described thus: Inhibition of KRas-mediated phosphorylation of ERK (Cisbio HTRF pERK), H460 cells. The test is classed as cell-based. Conditions: Homo sapiens, NCI-H460, single point at 100 nM, 3 hrs compound incubation.
A further test concerns PSN1 cells. The test can be described thus: Inhibition of KRas-mediated phosphorylation of ERK (Cisbio HTRF pERK), PSN1 cells. Particulars: Homo sapiens, PSN1, 3 h, 3 hour compound incubation, Cisbio pERK HTRF. The test is classed as cell-based. As to the method: (§1) Inhibition of KRas Phosphorylation of ERK (HTRF) by Exemplary Compounds of Formula (I) Cisbio HTRF Advanced pERK Assay Catalog #64AERPEH • Cells: MKN1, PSN1 • Procedure: • Day 1: Seed 6,000 cells/well -25 µl/well in 384-well white solid bottom plate; RPM1_10% FBS.

The subject of another test is MKN1 cells. Put plainly: Inhibition of KRas-mediated phosphorylation of ERK (Cisbio HTRF pERK), MKN1 cells. The test is classed as cell-based. Particulars: Homo sapiens, MKN-1, 3 hour compound incubation, Cisbio pERK HTRF. As to the method: as §1
The next test deals with H358 cells. Put plainly: Inhibition of KRas-mediated phosphorylation of ERK (Cisbio HTRF pERK), H358 cells. The test is classed as cell-based. Particulars: Homo sapiens, NCI-H358, single point at 100 nM, 3 hrs compound incubation.
In another test the test system is A549 cells. Put plainly: Inhibition of KRas-mediated phosphorylation of ERK (Cisbio HTRF pERK), A549 cells. It counts as cell-based. Particulars: Homo sapiens; for inhibition at 0.1 µM: single point at 100 nM, 3 hrs compound incubation.

Chain of KRas G12R (P01116 1-169 isoform P01116-2 G12R): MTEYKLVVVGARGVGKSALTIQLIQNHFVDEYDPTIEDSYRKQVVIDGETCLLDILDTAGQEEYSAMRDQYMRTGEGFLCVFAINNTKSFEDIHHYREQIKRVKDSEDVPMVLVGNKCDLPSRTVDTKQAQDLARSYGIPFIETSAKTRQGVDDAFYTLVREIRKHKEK
Chain of KRas G12V (P01116 1-169 isoform P01116-2 G12V): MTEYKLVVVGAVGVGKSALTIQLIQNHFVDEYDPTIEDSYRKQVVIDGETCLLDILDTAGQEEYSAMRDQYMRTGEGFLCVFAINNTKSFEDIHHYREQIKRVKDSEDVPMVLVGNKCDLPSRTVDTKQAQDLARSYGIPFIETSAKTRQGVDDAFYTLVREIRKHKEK
Chain of KRas G12D (P01116 1-169 isoform P01116-2 G12D): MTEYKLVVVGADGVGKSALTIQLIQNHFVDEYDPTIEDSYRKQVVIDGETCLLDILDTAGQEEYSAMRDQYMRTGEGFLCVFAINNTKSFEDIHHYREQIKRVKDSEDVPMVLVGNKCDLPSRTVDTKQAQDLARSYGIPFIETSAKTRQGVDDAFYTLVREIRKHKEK

In the case of `CCc1c(F)ccc2cc(O)cc(N3CCc4c(nc(OC[C@@]56CCCN5C[C@H](F)C6)nc4N4CCCn5nc(CNC(=O)N(C)C)cc5C4)C3)c12` [Example 354, 3-((5-(7-(8-ethyl-7-fluoro-3-hydroxynaphthalen-1-yl)-2-(((2R,7aS)-2-fluorohexahydro-1H-pyrrolizin-7a-yl)methoxy)-5,6,7,8-tetrahydropyrido[3,4-d]pyrimidin-4-yl)-5,6,7,8-tetrahydro-4H-pyrazolo[1,5-a][1,4]diazepin-2-yl)methyl)-1,1-dimethylurea], the IC50 (commonly the concentration at which inhibition is half-maximal) in the test with H727 cells was 1220 nM; on KRas G12D, 3 nM; on KRas G12V, 4 nM; with ASPC1 cells it was 1060 nM; on KRas G12R, 5 nM; with PSN1 cells, above 10000 nM. The IC50 in the test with MKN1 cells came to 814 nM. Moreover, the inhibition (commonly the drop in the measured response relative to a control, in per cent) at 0.1 µM was found to be 11% in the test with HCT116 cells (HCT-116, single point at 100 nM, 3 hrs compound incubation) and 8% in the test on H460 cells.

With `CCc1c(F)ccc2cc(O)cc(N3CCc4c(nc(OC[C@@]56CCCN5C[C@H](F)C6)nc4N4CCCn5nc(C(=O)O)cc5C4)C3)c12` [Example 389, 5-(7-(8-ethyl-7-fluoro-3-hydroxynaphthalen-1-yl)-2-(((2R,7aS)-2-fluorohexahydro-1H-pyrrolizin-7a-yl)methoxy)-5,6,7,8-tetrahydropyrido[3,4-d]pyrimidin-4-yl)-5,6,7,8-tetrahydro-4H-pyrazolo[1,5-a][1,4]diazepine-2-carboxylic acid], the IC50 with H727 cells was 214 nM; on KRas G12D it was below 2 nM; on KRas G12V it was below 2 nM; with HCT116 cells, above 10000 nM; with ASPC1 cells it was 492 nM; at KRas G12R, below 2 nM. The IC50 in the test with PSN1 cells is above 10000 nM; in the test with MKN1 cells it was 54.8 nM. Moreover, the results for the inhibition at 0.1 µM with H358 cells and in the test with A549 cells were 23% and -36%, respectively.

Consider `O=C1CC2(CCCN(c3nc(OC[C@@]45CCCN4C[C@H](F)C5)nc4c3CCN(c3cc(O)cc5ccc(F)c(Cl)c35)C4)C2)C(=O)N1` (stereo partly drawn) [Example 467, 7-(7-(8-chloro-7-fluoro-3-hydroxynaphthalen-1-yl)-2-(((2R,7aS)-2-fluorohexahydro-1H-pyrrolizin-7a-yl)methoxy)-5,6,7,8-tetrahydropyrido[3,4-d]pyrimidin-4-yl)-2,7-diazaspiro[4.5]decane-1,3-dione], for which the IC50 with H727 cells was 257 nM; at KRas G12D it was below 2 nM; at KRas G12V, below 2 nM; with HCT116 cells, 296 nM; in the test with A549 cells (A549, 3 h, 3 hr compound incubation, Cisbio pERK HTRF), 226 nM; in the test with ASPC1 cells it was 533 nM. Also, the IC50 on KRas G12R is below 2 nM; in the test on PSN1 cells, 841 nM; in the test on MKN1 cells, 37.2 nM.

As for `CCCCN(C)C(=O)c1cc2n(n1)CCCN(c1nc(OC[C@@]34CCCN3C[C@H](F)C4)nc3c1CCN(c1cc(O)cc4ccc(F)c(CC)c14)C3)C2` [Example 496, N-butyl-5-(7-(8-ethyl-7-fluoro-3-hydroxynaphthalen-1-yl)-2-(((2R,7aS)-2-fluorohexahydro-1H-pyrrolizin-7a-yl)methoxy)-5,6,7,8-tetrahydropyrido[3,4-d]pyrimidin-4-yl)-N-methyl-5,6,7,8-tetrahydro-4H-pyrazolo[1,5-a][1,4]diazepine-2-carboxamide], the IC50 with H727 cells was 19 nM; on KRas G12D, below 2 nM; on KRas G12V, below 2 nM; in the test with ASPC1 cells, 10 nM; at KRas G12R, below 2 nM; in the test on PSN1 cells, 5350 nM. The compound also gave an IC50 in the test on MKN1 cells of 16.3 nM. Besides, the inhibition at 0.1 µM with H727 cells (NCI-H727, single point at 100 nM, 3 hrs compound incubation) turned out to be 71%; in the test with H358 cells, 97%; with A549 cells it was 95%; in the test with ASPC1 cells (ASPC1, single point at 100 nM, 3 hrs compound incubation), 96%.
